In patent publication US20240139220A1, “TREATMENT OF HPV INFECTION” (priority 2022, published 2024):
Like-named read-outs stand apart in the source and are kept apart here.

Assays:
C33A cells = assay: In vitro cytotoxicity, XTT, five days; settings: read-out: C33A CC50
Experimental: (§1) Three compounds (Compound I, Compound II and Compound III) were solubilized at 40 mM in DMSO and stored at −20° C. The test compounds were evaluated using a high test concentration of 50 μM. Serial half-logarithmic dilutions were performed for the in vitro cytotoxicity assays.
(§2) Cells listed in Table 70 were enumerated by Trypan Blue Dye exclusion method and seeded in the interior wells of a 96 well flat bottom microtiter plate at 100 μL/well. Proliferating cells were incubated overnight at 37° C./5% CO2 to allow the cells to adhere to the plates at approximately 70% confluency. Tissue culture medium was removed and replaced with 100 μL/well of fresh medium. One-hundred microliters (100 μL) of each compound at six concentrations was transferred to the 96-well plate containing the cells in triplicate. Table 70 lists the cell line, type of cell, source of cell stock, base tissue culture medium supplemented with 10% fetal bovine serum, 2 mM L-glutamine, 100 U/mL penicillin and 100 μg/mL streptomycin, and microtiter plate seeding density.
(§3) Following incubation at 37′C in a 5% CO2 incubator for five days, the test plates were stained with the tetrazolium dye XTT (2,3-bis(2-methoxy-4-nitro-5-sulfopheny1)-5-[(phenylamino)carbonyl]-2H-tetrazolium hydroxide). XTT-tetrazolium was metabolized by the mitochondrial enzymes of metabolically active cells to a soluble formazan product. XTT solution was prepared daily as a stock of 1 mg/ml in RPM11640. Phenazine methosulfate (PMS) solution was prepared at 0.15 mg/ml in PBS and stored in the dark at −20° C. XTT/PMS stock was prepared immediately before use by adding 40 μL of PMS per ml of XTT solution. Fifty microliters of XTT/PMS were added to each well of the plate and the plate was reincubated for 4 hours at 37° C. Plates were sealed with adhesive plate sealers and shaken gently or inverted several times to mix the soluble formazan product and the plate was read spectrophotometrically at 450/650 nm with a Molecular Devices Vmax plate reader.
(§4) Microsoft Excel 2010 was used to analyze and graph the raw data. CCso (50% reduction in cell viability) values are tabulated and provided. Raw data for cytotoxicity with a graphic representation of the data are provided in a printout summarizing the compound effect on cell viability.
(§5) Compounds I, II, and III were evaluated for cytotoxicity to proliferating Hs27, HeLa, C33A and HEK293 cells by measuring cell viability using XTI tetrazolium dye following five days in culture (Table 71).

HeLa cells = assay: In vitro cytotoxicity, XTT, five days
Experimental: as §1, §2, §3, §4, §5

Hs27 cells = assay: In vitro cytotoxicity, XTT, five days
Experimental: as §1, §2, §3, §4, §5

HEK293 cells = tested on: HEK293 cells
Experimental: as §1
Cells listed in Table 70 were enumerated by Trypan Blue Dye exclusion method and seeded in the interior wells of a 96 well flat bottom microtiter plate at 100 μL/well. Proliferating cells were incubated overnight at 37° C./5% CO2 to allow the cells to adhere to the plates at approximately 70% confluency. Tissue culture medium was removed and replaced with 100 μL/well of fresh medium. […]
Following incubation at 37′C in a 5% CO2 incubator for five days, the test plates were stained with the tetrazolium dye XTT (2,3-bis(2-methoxy-4-nitro-5-sulfopheny1)-5-[(phenylamino)carbonyl]-2H-tetrazolium hydroxide). […] Plates were sealed with adhesive plate sealers and shaken gently or inverted several times to mix the soluble formazan product and the plate was read spectrophotometrically at 450/650 nm with a Molecular Devices Vmax plate reader. […]
as §5

[1] = Hygroscicity by Dynamic Vapor Sorption (DVS) at 25° C.; format: physicochemical
Experimental: Hygroscopicity was investigated by DVS at 25° C., using the following method: […]

[2] = Ex vivo permeation and penetration across porcine vaginal tissue (Franz diffusion cells, IVPT); format: in vitro ADME; settings: porcine vaginal tissue, FIG. 116; Compound II 0.1% gel, ABI-1968 1% and 3% formulations
Text: (§6) FIG. 116 is an in vitro tissue permeation test in vaginal tissue comparing Compound II to ABI-1968. […] Bars B and C show the tissue penetration of a 0.1% Compound II gel in […]. […] This may be a contributing factor to the performance of ABI-1968 in clinical studies. […] This is described in Example 41.
Freshly harvested porcine vaginal tissue was procured from local slaughterhouse in an ice box. The vaginal tissue was cut open to expose the mucosal surface and tissue was cleaned by gentle flow of PBS pH 7.4. The porcine vaginal tissue was cut into circular portions (approximately 2 cm^2) with help of a […] punch.
The circular portion of tissue was sandwiched between two chambers of a Franz diffusion cell with an active diffusion area of 1 cm^2, and the mucosal layer was exposed to the donor chambers. The resistance across porcine vaginal tissue was measured using a wave form generator to ensure the integrity of the tissue segment used for the permeation study. Porcine vaginal tissue with resistance of ≥3 KΩ.cm^2 was used for study. The receiver chamber was filled with 8 ml of 5% solutol PBS 7.4 pH, which was stirred at 600 rpm with a 3 mm magnetic stir bar and the temperature was maintained at 37° C. with a circulating water bath.
The ˜200 mg of gel was filled into tared 1 mL syringe and gel was dispensed to donor chamber. The gel was spread on to mucosal surface with pre weighed applicator. After loading and spreading of the gel onto surface of mucosal surface, the weight of 1 mL syringe and applicator was noted to determine the exact amount of gel loaded into donor chamber.
Time course (2 h, 4 h and 8 h) porcine vaginal permeation studies were performed. After loading gel, 500 μL samples were withdrawn from the receiver compartment at different time intervals and each time an equal volume of fresh receiver media was used to replace withdrawn samples. The sample withdrawn at each time interval were stored immediately in −20° C. until analysis. After 2, 4 and 8 h, the formulation was removed from the donor chamber with help of syringe and cleaned with cotton swab. The tissue was removed and washed gently with wash solution (50% methanol in water) 5 times and alternatively cleaning with cotton swab.
An 8 mm punch of active diffusion area of washed porcine vaginal tissue was removed, weighed and transferred into a tube. This tube was immediately placed into dry ice for ˜15 min. After specified time, tissue was removed and placed in precooled dish. The tissue was minced into smaller pieces on a dish with a precooled surgical blade. The minced tissue was transferred to sample tubes and dish was rinsed with 1 ml of 5% solutol in PBS 7.4 pH and transferred to same tissue sample tube. These tubes were stored in −70° C. until analysis.
The samples stored at −20° C. was removed and thawed at room temperature for 30 min. The drug from receptor fluid was centrifuged at 13000 rpm for 5 min and to 200 μL of supernatant equal volume of extraction solvent was added. These samples were centrifuged at 13000 rpm for 5 min and supernatant was transferred into vials for analysis.
The minced tissue samples stored at −70° C. were removed and thawed at room temperature for ˜90 min. The samples were kept for shaking at room temperature for 4 h in BioShaker. After 4 h, samples were centrifuged at 13000 rpm for 5 min. To 100 μL of supernatant, 400 μL of extraction solvent was added and vortexed for 2 min. […]

[3] = In vitro tissue permeation test in human cervical tissue; format: in vitro ADME; settings: 0.1% gel, FIG. 116
Text: as §6

Row | SMILES | CC50 (C33A cells) | CC50 (HeLa cells; read-out: HeLa CC50, HeLa cells, XTT, five days) | CC50 (Hs27 cells; read-out: Hs27 CC50, Hs27 cells, XTT, five days) | CC50 (HeLa cells) | CC50 (Hs27 cells) | CC50 (HEK293 cells) | XRPD pattern after humidity cycle ([1]; cycle of 40-0-95-0-45% relative humidity) | Water content retained ([1]; exposed to a cycle of 40-0-95-0-45% relative humidity) | Tissue penetration [2] | Tissue penetration [3]
1 | CCOC(=O)C(C)NP(=O)(COCCn1cnc2c(OC)nc(N)nc21)OCc1ccccc1 (mixture of isomers) [ABl2280] | 0.28 µM | 18.6 µM | 22.9 µM | – | – | – | – | – | – | –
2 | CCOC(=O)C(C)NP(=O)(COCCn1cnc2c(OC)nc(N)nc21)OCc1ccccc1 (single isomer, unassigned; isomer 1) [ABl2280 Isomer 1] | 0.2 µM | – | – | 15.1 µM | 23.2 µM | < 0.16 µM | – | – | – | –
3 | CCOC(=O)C(C)NP(=O)(COCCn1cnc2c(OC)nc(N)nc21)OCc1ccccc1 (single isomer, unassigned; isomer 2) [ABl2280 Isomer 2] | < 0.16 µM | – | – | 16.9 µM | 7.62 µM | < 0.16 µM | – | – | – | –
4 | CCOC(=O)[C@H](C)N[P@@](=O)(COCCn1cnc2c(OC)nc(N)nc21)OCc1ccccc1.O=C(O)/C=C/C(=O)O [Compound II] | – | – | – | – | – | – | does not change | about 0.25% | high tissue penetration | high tissue penetration
